Measured values: US9187413B2, “Peripherally restricted FAAH inhibitors” (The Regents of the University of California, priority 2010, dated 2015)

Experiments:
[1] = system: carrageenan-induced inflammation; test: Carrageenan-induced hyperalgesia, allodynia and paw edema; type: in vivo, mice; conditions: mice, 1 mg-kg^-1, i.p.
Procedure: Behavioral tests. We measured nocifensive responses elicited by i.p. injection of acetic acid in male Swiss and C57B1/6 (wild-type or FAAH-deficient) mice^40, intraplantar injection of carrageenan in male Swiss mice^20, intraplantar injection of formalin in male Sprague-Dawley rats^41, and sciatic nerve ligation in male Swiss mice^39.
Behavioral tests Acetic acid-induced writhing was measured in Swiss mice or C57B1/6 mice (wild-type and FAAH-deficient), as described^40 with minor modifications. Briefly, the mice were acclimated to the experimental room for 2 h. Each animal was injected with acetic acid (150 μL, 0.6% in saline) and placed into a glass cylinder. Abdominal stretches (extension of body and hind limbs) were counted for 20 min, starting 5 min after acetic acid injection. […] Behavior was scored by an observer blinded to the treatment conditions. Formalin-induced nociception was assessed in Sprague-Dawley rats, as described^41. The rats were singly housed and kept in a shared holding room under a 12:12 h light:dark cycle. They were given free access to food and water, and allowed to acclimate to the facility for a week before testing. […] They were acclimated to the observation container (clear plexiglas box, 29×29×25 cm) for 15 min before receiving an injection of formalin (50 μL, 5% in saline) into the dorsal surface of the right hind paw. Immediately after formalin injection, the rats were returned to the observation container and nocifensive behavior was recorded for 60 min with a video camera. Recordings were analyzed by observers blinded to treatment conditions. Nocifensive behavior was measured continuously for 60 min^41. […] Each 5-min bin was analyzed for time spent (1) lifting and (2) licking or biting the injected paw. Nocifensive behavior was analyzed using the composite pain score weighted scores technique (CPS-WST1,2) calculated for the entire time of observation (0-60 min) and, separately, for the first (0-10 min) and second phase (10-60 min) of the behavioral response^46. The area under the curve (AUC) corresponding to CPS-WST1,2 was calculated using the trapezoidal rule. Paw edema was induced in mice by injection into the right hind paws of 50 μL of sterile saline containing 1% λ-carrageenan. Paw volumes were measured using a plethysmometer (Ugo Basile, Milan, Italy). […] Rimonabant and AM630 (1 mg kg^−1, i.p.) were injected 30 min before carrageenan. Mechanical hyperalgesia was assessed by measuring the latency(s) to withdraw the paw from a constant mechanical pressure exerted onto its dorsal surface. A 15-g calibrated glass cylindrical rod (diameter=10 mm) chamfered to a conical point (diameter=3 mm) was used to exert the mechanical force. The weight was suspended vertically between two rings attached to a stand and was free to move vertically. A cutoff time of 3 min was used. Thermal hyperalgesia was assessed as described^47, measuring the latency to withdraw the hind paw from a focused beam of radiant heat (thermal intensity: infrared 3.0) applied to the plantar surface, using a commercial apparatus (Ugo Basile, Varese, Italy). The cutoff time was set at 30 s. Mechanical allodynia was assessed by applying a graded force to the plantar hind paw surface with a Von Frey filament, using a Dynamic Plantar Anesthesiometer (Ugo Basile). The cutoff force was set at 50 g.

[2] = system: blood-brain barrier transporters; test: Co-administration of inhibitors of blood-brain barrier transporters with URB937; type: in vivo; conditions: rats, URB937 25 mg-kg^-1 i.p.
[3] = system: Fos protein; test: Formalin-induced Fos expression in lumbar spinal cord; type: in vivo; conditions: rats, URB937 1 mg-kg^-1, i.p., lumbar spinal cord
Procedure: Fos expression. We measured Fos protein levels by quantitative immunocytochemistry^5 on slices of lumbar (L4/L5) spinal cord from male Sprague-Dawley rats.
Fos immunohistochemistry Two hours after formalin injection into the dorsal paw, rats received a lethal dose of Nembutal (50 mg-mL^−1). They were perfused through the heart with 100 mL of 1% heparinized phosphate buffered saline (PBS) followed by 300 mL of ice-cold 4% paraformaldehyde. The lumbar-sacral region of the spinal cord was collected from each rat. Spinal cords were post fixed in 4% paraformaldehyde at 4° C. for 24 h and then cryoprotected in 30% sucrose at 4° C. for 24-48 hours. Spinal cords were cryostat-cut into 40 μm transverse sections at the level of the lumbar enlargement (L4/L5). Free floating alternating sections were kept in a series of wells filled with PBS. Every fourth section was processed for Fos immunoreactivity to ensure that the same cell would not be counted twice. Endogenous peroxidases were inactivated by incubation in hydrogen peroxide. […]
Selection of sections and quantification of the number of Fos-positive cells was performed by an observer blinded to experimental conditions. […] Using Image J, Fos expressing cells were counted in each subdivision, regardless of staining intensity, by an observer blinded to experimental treatments.

## NC(=O)c1cccc(-c2cc(OC(=O)NC3CCCCC3)ccc2O)c1 [Compound 1b, cyclohexylcarbamic acid 3′-carbamoyl-6-hydroxybiphenyl-3-yl ester]
[1]; 4 h after carrageenan
  carrageenan-induced paw edema, 4 h: did not affect paw edema
[1]; 4 h and 24 h following carrageenan
  carrageenan-induced mechanical and thermal hyperalgesia: significant decrease
[1]; 24 h after carrageenan
  carrageenan-induced mechanical allodynia: suppressed mechanical allodynia
  carrageenan-induced paw edema, 24 h: reversed it
[2]; co-administration of BCRP inhibitor Ko-143
  access of URB937 to the brain with Ko-143: dose-dependent increase
[2]; co-administration of verapamil or probenecid
  access of URB937 to the brain with verapamil or probenecid: no such effect
[3]
  formalin-induced Fos expression: lowered the Fos response to formalin
